Measurements from patent US10757939B2, “Insecticidal and nematocidal active ingredient combinations” (priority 2014, dated 2020).
Read-outs that look alike come from different tables or passages of the source.

Columns and labels:
[1] = tested on: Myzus persicae; test: Myzus persicae - drench test (cabbage plants); format: in vivo; conditions: soil
Protocol: (§1) Formula for the Efficacy of the Combination of Two Compounds
(§2) Schneider-Orelli: Formula to Calculate Corrected Efficacy % in Pesticide Trials
Myzus persicae—Drench Test
(§3) • Solvent: 7 parts by weight of dimethylformamide • Emulsifier: 2 parts by weight of alkylaryl poly glycol ether
(§4) In the calculation of the concentration the soil volume has to be included. […] Further test concentrations are prepared by dilution with water.
(§5) After the specified period of time mortality in % is determined. 100% means all the aphids have been killed and 0% means none of the aphids have been killed. The mortality values determined thus are recalculated using the Colby-formula (see sheet 1).

[2] = tested on: Meloidogyne incognita; test: Meloidogyne incognita - test (gall formation, sand, salad seedlings); format: in vivo
Protocol: as §1, §2
Meloidogyne incognita—Test […]
Vessels are filled with sand, a solution of the active ingredient, a suspension containing eggs and larvae of the southern root-knot nematode (Meloidogyne incognita) and salad seeds. The salad seeds germinate and the seedlings grow. Galls develop in the roots.
After the specified period the nematicidal activity is determined on the basis of the percentage of gall formation.

[3] = tested on: Spodoptera frugiperda; test: Spodoptera frugiperda - drench test (corn plants); format: in vivo
Protocol: as §1, §2
Spodoptera frugiperda—Drench Test
as §3, §4
as §5, with “determined and corrected according to Schneider-Orelli's formula (see sheet 1).” for “determined.”, “caterpillars” for “aphids”

[4] = tested on: Meloidogyne incognita; test: Meloidogyne incognita - drench test (soil, salad seedlings); format: in vivo
Protocol: as §1, §2
Meloidogyne incognita—Drench Test
• Solvent: 7 parts by weight of dimethylformamide • Emulsifier: 2.5 parts by weight of alkylarylpolyglycolether
as §4
The compound solution is poured into pots filled with soil (loamy sand). A suspension containing eggs and larvae of the southern root-knot nematode (Meloidogyne incognita) is added, salad seeds are spread on the soil surface and covered with quartz sand. The salad seeds germinate and the seedlings grow. Galls develop on the roots.
After the specified period of time the nematicidal activity is determined on the basis of the percentage of gall formation. […] The activity determined thus is recalculated using the Colby-formula (see sheet 1).

[5] = tested on: Tetranychus urticae; test: Tetranychus urticae - drench test; OP-resistant (bean plants); format: in vivo; conditions: for mortality at 25 ppm: Tetranychus urticae, soil, 360 h, read-out: Efficacy in % after 15 d (mortality)
Protocol: as §1, §2
Tetranychus urticae—Drench Test; OP-Resistant
as §3, §4
After the specified period of time mortality in % is determined. 100% means all the spider mites have been killed and 0% means none of the spider mites have been killed. The mortality values determined thus are recalculated using the Colby-formula (see sheet 1).

[6] = logP by HPLC-MS
[7] = 168 h, 7 d, read-out: Efficacy in % after 7d
[8] = 240 h, 10 d, read-out: Efficacy in % after 10d

CNC(=O)c1cc(C#N)cc(C)c1NC(=O)c1cc(Cn2nnc(C(F)(F)F)n2)nn1-c1ncccc1Cl [1-(3-chloropyridin-2-yl)-N-[4-cyano-2-methyl-6-(methylcarbamoyl)phenyl]-3-{[5-(trifluoromethyl)-2H-tetrazol-2-yl]methyl}-1H-pyrazole-5-carboxamide]
pest or weed control at 0.25 ppm [1, 7]: 0%
pest or weed control at 0.25 ppm [1, 8]: 0%

C/C=C(\C)C(=O)O[C@H]1C[C@@H](OC(C)=O)[C@@]2(C(=O)OC)CO[C@H]3[C@@H](O)[C@@](C)([C@]45O[C@@]4(C)[C@H]4C[C@@H]5O[C@@H]5OC=C[C@@]54O)[C@H]4[C@]1(CO[C@]4(O)C(=O)OC)[C@@H]32 [Azadirachtin]
Efficacy in % after 14d ([2]; 16 ppm): 0%

CCOP(=O)(SC(C)CC)SC(C)CC (stereo not drawn) [Cadusafos]
Efficacy in % after 14d ([2]; 50 ppm): 0%
Efficacy in % after 14d ([2]; 100 ppm): 0%

CNC(=O)Oc1cccc2c1OC(C)(C)C2 [Carbofuran]
Efficacy in % after 14d ([2]; 50 ppm): 0%
Efficacy in % after 14d ([2]; 100 ppm): 0%

CNC(=O)c1cc(Cl)cc(C)c1NC(=O)c1cc(Br)nn1-c1ncccc1Cl [Chlorantraniliprole]
Efficacy in % after 14d ([3]; 0.04 ppm): 66.5%
pest or weed control at 0.8 ppm ([1]; 168 h, 0.8 ppm, 7 d, read-out: Efficacy in % after 7d): 10%
pest or weed control at 1.6 ppm ([1]; 168 h, 1.6 ppm, 7 d, read-out: Efficacy in % after 7d): 20%
pest or weed control at 0.4 ppm ([1]; 240 h, 0.4 ppm, 10 d, read-out: Efficacy in % after 10d): 0%

CN/C(=N\[N+](=O)[O-])NCc1cnc(Cl)s1 [Clothianidin, reference compound]
Efficacy in % after 6d ([3]; 2 ppm): 0%
Efficacy in % after 4d ([3]; 10 ppm): 0%
Efficacy in % after 6d ([3]; 10 ppm): 37%

O=C(Nc1ccn(-c2c(F)cccc2F)n1)c1ccccc1C(F)(F)F [Compound (Ia), N-[1-(2,6-difluorophenyl)-1H-pyrazol-3-yl]-2-(trifluoromethyl)benzamide]
Efficacy in % after 14d ([2]; 1 ppm): 0%
Efficacy in % after 14d ([2]; 5 ppm): 0%
Efficacy in % after 14d ([2]; 10 ppm): 0%
Efficacy in % after 14d ([3]; 0.2 ppm): 0%
Efficacy in % after 14d ([3]; 40 ppm): 0%
Efficacy in % after 4d ([3]; 200 ppm): 0%
Efficacy in % after 6d ([3]; 200 ppm): 0%
Efficacy in % after 21d ([4]; 0.75 ppm): 0%
pest or weed control at 2 ppm [1, 7]: 0%
pest or weed control at 20 ppm [1, 7]: 0%
pest or weed control at 2 ppm [1, 8]: 0%
pest or weed control at 20 ppm [1, 8]: 0%
mortality at 25 ppm [5]: 10%
logP [6]: 2.68

O=C(Nc1ccn(-c2ncc(F)cc2F)n1)c1ccccc1C(F)(F)F [Compound (Ib), N-[1-(3,5-difluoropyridin-2-yl)-1H-pyrazol-3-yl]-2-(trifluoromethyl)benzamide]
Efficacy in % after 14d ([3]; 40 ppm): 0%
Efficacy in % after 4d ([3]; 200 ppm): 0%
Efficacy in % after 6d ([3]; 200 ppm): 0%
Efficacy in % after 21d ([4]; 0.75 ppm): 55%
pest or weed control at 2 ppm [1, 7]: 0%
pest or weed control at 20 ppm [1, 7]: 0%
pest or weed control at 2 ppm [1, 8]: 0%
mortality at 25 ppm ([5]; drench, bean plants, 25 ppm, after 15 d, single compound): 0%

O=C(Nc1cnn(-c2c(F)cccc2F)n1)c1ccccc1C(F)(F)F [Compound (Ic), N-[2-(2,6-Difluorophenyl)-2H-1,2,3-triazol-4-yl]-2-(trifluoromethyl)benzamide]
Efficacy in % after 14d ([2]; 0.25 ppm): 0%
Efficacy in % after 14d ([2]; 1 ppm): 0%
Efficacy in % after 14d ([2]; 5 ppm): 0%
Efficacy in % after 14d ([2]; 10 ppm): 70%
Efficacy in % after 14d ([3]; 0.2 ppm): 0%
Efficacy in % after 14d ([3]; 0.8 ppm): 0%
Efficacy in % after 4d ([3]; 200 ppm): 0%
Efficacy in % after 6d ([3]; 200 ppm): 0%
pest or weed control at 2 ppm [1, 7]: 0%
pest or weed control at 20 ppm [1, 7]: 0%
pest or weed control at 2 ppm [1, 8]: 0%
mortality at 25 ppm [5]: 0%
logP [6]: 2.80

CNC(=O)c1cc(C#N)cc(C)c1NC(=O)c1cc(Br)nn1-c1ncccc1Cl [Cyantraniliprole]
Efficacy in % after 14d ([3]; 0.08 ppm): 16.5%
pest or weed control at 0.1 ppm [1, 7]: 20%
pest or weed control at 0.1 ppm [1, 8]: 10%

N#Cc1nn(-c2c(Cl)cc(C(F)(F)F)cc2Cl)c(N)c1[S+]([O-])C(F)(F)F (stereo not drawn) [Fipronil]
pest or weed control at 5 ppm [1, 7]: 15%
pest or weed control at 10 ppm [1, 7]: 40%
pest or weed control at 5 ppm [1, 8]: 50%
pest or weed control at 10 ppm [1, 8]: 55%

Cc1cc(C(F)(C(F)(F)F)C(F)(F)F)ccc1NC(=O)c1cccc(I)c1C(=O)NC(C)(C)CS(C)(=O)=O [Flubendiamide, reference compound]
Efficacy in % after 14d ([3]; 4 ppm): 33%
Efficacy in % after 14d ([3]; 8 ppm): 66%

O=C(NCCc1ncc(C(F)(F)F)cc1Cl)c1ccccc1C(F)(F)F [Fluopyram, reference compound]
Efficacy in % after 21d ([4]; 0.15 ppm): 0%

O=[N+]([O-])NC1=NCCN1Cc1ccc(Cl)nc1 [Imidacloprid, reference compound]
Efficacy in % after 6d ([3]; 10 ppm): 0%
Efficacy in % after 4d ([3]; 50 ppm): 22%
Efficacy in % after 6d ([3]; 50 ppm): 12%

CC(C)NC(=O)N1CC(=O)N(c2cc(Cl)cc(Cl)c2)C1=O [Iprodione]
Efficacy in % after 14d ([2]; 50 ppm): 0%
Efficacy in % after 14d ([2]; 100 ppm): 0%

O=C(N=c1ccccn1Cc1ccc(Cl)nc1)C(F)(F)F [N-[1-[(6-chloro-3-pyridinyl)methyl]-2(1H)-pyridinylidene]-2,2,2-trifluoro-acetamide]
pest or weed control at 0.1 ppm [1, 7]: 30%
pest or weed control at 0.1 ppm [1, 8]: 20%

CS/C(C)=N\OC(=O)N(C)SN(C)C(=O)O/N=C(\C)SC [Thiodicarb]
Efficacy in % after 14d ([2]; 50 ppm): 0%

CC(=O)NC1=NN(c2c(F)cccc2F)CC1 [intermediate (Ia-2), N-[1-(2,6-Difluorophenyl)-4,5-dihydro-1H-pyrazol-3-yl]acetamide]
logP [6]: 1.46

CC(=O)Nc1ccn(-c2c(F)cccc2F)n1 [intermediate (Ia-3), N-[1-(2,6-Difluorophenyl)-1H-pyrazol-3-yl]acetamide]
logP [6]: 1.33

Nc1ccn(-c2c(F)cccc2F)n1 [intermediate (Ia-4), 1-(2,6-Difluorophenyl)-1H-pyrazole-3-amine]
logP [6]: 1.13

Nc1ccn(-c2ncc(F)cc2F)n1 [intermediate (Ib-1), 1-(3,5-Difluoropyridin-2-yl)-1H-pyrazole-3-amine]
logP [6]: 0.81

Nc1cnn(-c2c(F)cccc2F)n1 [intermediate (Ic-8), 2-(2,6-Difluorophenyl)-2H-1,2,3-triazole-4-amine]
logP [6]: 1.16

Abamectin
Efficacy in % after 14d ([2]; 0.02 ppm): 0%
Efficacy in % after 14d ([2]; 0.08 ppm): 0%

Emamectin-benzoate
Efficacy in % after 15 d (mortality) ([5]; drench, bean plants, 2 ppm, after 15 d, single compound): 10%
